Laboratory results published in ChEMBL document CHEMBL4396971, “Discovery of potent and orally bioavailable indazole-based glucagon receptor antagonists for the treatment of type 2 diabetes” (Bioorg Med Chem Lett, 2019).
One block for each molecule: values may come before it. Calls of active or inactive are those of the source. The calls are words filed in the database; no cut-off is given here.

Tests used:
[1] = Clearance in C57 mouse at 5 mg/kg, iv or 20 mg/kg, po; type: ADME, organism-based; settings: in vivo
[2] = Half life in dog at 10 mg/kg, po; type: ADME, organism-based, Canis lupus familiaris; settings: in vivo
[3] = tested on: Canis familiaris; assay: Antidiabetic activity in Beagle dog assessed as reduction in blood glucose level at 10 mg/kg, po administered via gavage as single dose 90 mins prior to glucagon challenge measured up to 60 mins post glucagon challenge by glucometer analysis; type: functional, organism-based; settings: Canis lupus familiaris
[4] = Clearance in dog at 2 mg/kg, iv or 10 mg/kg, po; type: ADME, organism-based, Canis lupus familiaris; settings: in vivo
[5] = Half life in Sprague-Dawley rat at 2 mg/kg, iv; type: ADME, organism-based; settings: in vivo
[6] = Volume of distribution at steady state in Sprague-Dawley rat at 2 mg/kg, iv or 10 mg/kg, po; type: ADME, organism-based; settings: in vivo, read-out: Vdss
[7] = AUClast in Sprague-Dawley rat at 2 mg/kg, iv or 10 mg/kg, po; type: ADME, organism-based; settings: in vivo
[8] = Oral bioavailability in dog at 10 mg/kg; type: ADME, organism-based, Canis lupus familiaris; settings: in vivo
[9] = molecular target: T1, Cytochrome P450 3A4 (Homo sapiens, UniProt P08684); assay: Inhibition of CYP3A4 (unknown origin) using testosterone as substrate; type: ADME
T1 sequence (P08684 whole entry): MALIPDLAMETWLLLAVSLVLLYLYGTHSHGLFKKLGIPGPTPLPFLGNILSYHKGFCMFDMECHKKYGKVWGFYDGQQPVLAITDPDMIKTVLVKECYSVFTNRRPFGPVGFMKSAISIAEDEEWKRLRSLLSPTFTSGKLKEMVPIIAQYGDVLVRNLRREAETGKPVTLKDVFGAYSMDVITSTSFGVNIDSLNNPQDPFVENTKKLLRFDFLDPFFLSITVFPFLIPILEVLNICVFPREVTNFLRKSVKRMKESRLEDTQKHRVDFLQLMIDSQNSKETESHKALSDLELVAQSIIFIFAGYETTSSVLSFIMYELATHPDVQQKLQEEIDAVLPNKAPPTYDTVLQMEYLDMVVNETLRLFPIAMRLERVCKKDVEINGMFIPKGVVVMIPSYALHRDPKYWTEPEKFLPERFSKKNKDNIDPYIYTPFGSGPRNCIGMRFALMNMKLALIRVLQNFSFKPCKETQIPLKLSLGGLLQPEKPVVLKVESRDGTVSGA

[10] = molecular target: T1, Cytochrome P450 3A4; assay: Inhibition of CYP3A4 (unknown origin) using midazolam as substrate; type: ADME
[11] = molecular target: Cytochrome P450 2D6 (Homo sapiens, UniProt P10635); assay: Inhibition of CYP2D6 (unknown origin) using dextromethorphan as substrate; type: ADME
Chain of Cytochrome P450 2D6 (P10635 whole entry): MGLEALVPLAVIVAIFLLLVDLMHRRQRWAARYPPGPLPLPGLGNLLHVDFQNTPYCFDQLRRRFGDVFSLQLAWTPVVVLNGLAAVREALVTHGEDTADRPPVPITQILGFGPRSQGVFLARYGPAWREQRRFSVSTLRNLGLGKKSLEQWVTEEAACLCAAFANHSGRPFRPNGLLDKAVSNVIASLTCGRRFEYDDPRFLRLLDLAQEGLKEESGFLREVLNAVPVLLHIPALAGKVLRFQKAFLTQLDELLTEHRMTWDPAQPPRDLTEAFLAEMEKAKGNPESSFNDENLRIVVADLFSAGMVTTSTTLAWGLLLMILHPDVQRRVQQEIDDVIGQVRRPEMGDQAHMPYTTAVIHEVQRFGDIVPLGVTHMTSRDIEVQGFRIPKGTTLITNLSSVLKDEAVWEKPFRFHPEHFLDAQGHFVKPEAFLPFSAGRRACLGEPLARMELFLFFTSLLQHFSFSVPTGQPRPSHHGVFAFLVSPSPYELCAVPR

[12] = Cmax in dog at 2 mg/kg, iv or 10 mg/kg, po; type: ADME, organism-based, Canis lupus familiaris; settings: in vivo
[13] = AUClast in dog at 2 mg/kg, iv or 10 mg/kg, po; type: ADME, organism-based, Canis lupus familiaris; settings: in vivo
[14] = Stability in human liver microsomes assessed as parent compound remaining at 1 uM incubated for 10 mins; type: ADME, Microsome; settings: read-out: Stability
[15] = Stability in rat liver microsomes assessed as parent compound remaining at 1 uM incubated for 10 mins; type: ADME, Microsome; settings: read-out: Stability
[16] = Protein binding in human plasma at 1 uM; type: ADME, cell-free; settings: read-out: PPB
[17] = Volume of distribution at steady state in C57 mouse at 5 mg/kg, iv or 20 mg/kg, po; type: ADME, organism-based; settings: in vivo, read-out: Vdss
[18] = Stability in mouse liver microsomes assessed as parent compound remaining at 1 uM incubated for 10 mins; type: ADME, Microsome; settings: liver microsomes, read-out: Stability
[19] = Cmax in Sprague-Dawley rat at 2 mg/kg, iv or 10 mg/kg, po; type: ADME, organism-based; settings: in vivo
[20] = Cmax in C57 mouse at 5 mg/kg, iv or 20 mg/kg, po; type: ADME, organism-based; settings: in vivo
[21] = Oral bioavailability in Sprague-Dawley rat at 10 mg/kg; type: ADME, organism-based; settings: in vivo
[22] = Half life in C57 mouse at 5 mg/kg, iv; type: ADME, organism-based; settings: in vivo
[23] = Clearance in Sprague-Dawley rat at 2 mg/kg, iv or 10 mg/kg, po; type: ADME, organism-based; settings: in vivo
[24] = Volume of distribution at steady state in dog at 2 mg/kg, iv or 10 mg/kg, po; type: ADME, organism-based, Canis lupus familiaris; settings: in vivo, read-out: Vdss
[25] = molecular target: T2, Cytochrome P450 1A2 (Homo sapiens, UniProt P05177); assay: Inhibition of CYP1A2 (unknown origin) using phenacetin as substrate; type: ADME
T2 sequence (P05177 whole entry): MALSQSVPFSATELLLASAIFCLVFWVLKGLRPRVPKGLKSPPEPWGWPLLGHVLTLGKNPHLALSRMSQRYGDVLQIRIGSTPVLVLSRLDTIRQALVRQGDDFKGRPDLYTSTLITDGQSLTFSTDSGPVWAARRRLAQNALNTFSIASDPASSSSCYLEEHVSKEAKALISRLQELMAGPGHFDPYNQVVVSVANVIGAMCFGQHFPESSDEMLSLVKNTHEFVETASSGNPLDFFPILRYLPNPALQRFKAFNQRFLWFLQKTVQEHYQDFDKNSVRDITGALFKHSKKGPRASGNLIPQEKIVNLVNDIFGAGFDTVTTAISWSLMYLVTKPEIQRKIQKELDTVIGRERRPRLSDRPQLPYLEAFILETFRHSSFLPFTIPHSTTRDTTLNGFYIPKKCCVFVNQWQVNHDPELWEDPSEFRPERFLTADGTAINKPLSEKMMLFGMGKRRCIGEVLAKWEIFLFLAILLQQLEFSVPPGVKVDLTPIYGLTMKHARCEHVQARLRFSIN

[26] = tested on: Canis familiaris; assay: Antidiabetic activity in Beagle dog assessed as reduction in blood glucose AUC administered orally via gavage as single dose 90 mins prior to glucagon challenge by glucometer analysis; type: functional, organism-based; settings: Canis lupus familiaris
[27] = AUClast in C57 mouse at 5 mg/kg, iv or 20 mg/kg, po; type: ADME, organism-based; settings: in vivo
[28] = molecular target: Cytochrome P450 2C19 (Homo sapiens, UniProt P33261); assay: Inhibition of CYP2C19 (unknown origin) using S-Mephenytoin as substrate; type: ADME
Chain of Cytochrome P450 2C19 (P33261 whole entry): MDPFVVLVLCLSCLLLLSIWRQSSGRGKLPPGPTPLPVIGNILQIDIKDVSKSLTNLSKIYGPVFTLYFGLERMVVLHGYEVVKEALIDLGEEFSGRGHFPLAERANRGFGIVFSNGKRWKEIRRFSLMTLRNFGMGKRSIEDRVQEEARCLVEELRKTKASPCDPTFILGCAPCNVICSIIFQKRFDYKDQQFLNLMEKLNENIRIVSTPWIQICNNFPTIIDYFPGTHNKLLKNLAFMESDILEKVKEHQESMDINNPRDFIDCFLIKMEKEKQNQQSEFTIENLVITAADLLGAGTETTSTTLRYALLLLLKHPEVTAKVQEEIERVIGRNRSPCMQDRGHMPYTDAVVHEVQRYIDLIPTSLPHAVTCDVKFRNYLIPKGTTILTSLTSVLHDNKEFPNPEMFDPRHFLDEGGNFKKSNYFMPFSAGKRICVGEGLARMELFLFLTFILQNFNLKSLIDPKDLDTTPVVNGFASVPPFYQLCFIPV

[29] = molecular target: Cytochrome P450 2C9 (Homo sapiens, UniProt P11712); assay: Inhibition of CYP2C9 (unknown origin) using tolbutamide as substrate; type: ADME
Chain of Cytochrome P450 2C9 (P11712 whole entry): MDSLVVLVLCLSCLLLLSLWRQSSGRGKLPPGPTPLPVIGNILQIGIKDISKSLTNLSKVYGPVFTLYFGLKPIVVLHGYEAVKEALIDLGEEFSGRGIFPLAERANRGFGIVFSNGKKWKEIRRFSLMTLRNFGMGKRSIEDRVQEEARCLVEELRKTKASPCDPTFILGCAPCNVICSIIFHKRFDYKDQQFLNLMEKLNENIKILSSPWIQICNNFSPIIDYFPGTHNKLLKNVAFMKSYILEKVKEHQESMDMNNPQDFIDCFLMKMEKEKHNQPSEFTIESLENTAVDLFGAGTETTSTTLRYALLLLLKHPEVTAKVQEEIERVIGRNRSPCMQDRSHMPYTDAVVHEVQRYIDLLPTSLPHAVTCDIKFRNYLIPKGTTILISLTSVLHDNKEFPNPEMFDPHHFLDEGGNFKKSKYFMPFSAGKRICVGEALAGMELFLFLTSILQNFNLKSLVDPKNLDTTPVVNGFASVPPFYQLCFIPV

[30] = Antagonist activity at GCGR in dog hepatocytes assessed as inhibition of glucagon-induced cAMP by LANCE TR-FRET assay; type: cell-based, Canis lupus familiaris
[31] = Stability in dog liver microsomes assessed as parent compound remaining at 1 uM incubated for 10 mins; type: ADME, Canis lupus familiaris, Microsome; settings: for remaining at 10 min, 1 µM: liver microsomes, read-out: Stability
[32] = Oral bioavailability in C57 mouse at 20 mg/kg; type: ADME, organism-based; settings: in vivo
[33] = tested on: Canis familiaris; assay: Antidiabetic activity in Beagle dog assessed as reduction in blood glucose AUC at 10 mg/kg, po administered via gavage as single dose 90 mins prior to glucagon challenge by glucometer analysis; type: functional, organism-based; settings: Canis lupus familiaris
[34] = Half life in C57 mouse at 20 mg/kg, po; type: ADME, organism-based; settings: in vivo
[35] = Half life in dog at 2 mg/kg, iv; type: ADME, organism-based, Canis lupus familiaris; settings: in vivo
[36] = Half life in Sprague-Dawley rat at 10 mg/kg, po; type: ADME, organism-based; settings: in vivo
[37] = molecular target: T3, Glucagon receptor (Homo sapiens, UniProt P47871); assay: Inhibition of human full length GCGR transfected in HEK293 cells assessed as reduction in glucagon-induced cAMP response by LANCE TR-FRET assay; type: functional, cell-based
T3 sequence (P47871 whole entry): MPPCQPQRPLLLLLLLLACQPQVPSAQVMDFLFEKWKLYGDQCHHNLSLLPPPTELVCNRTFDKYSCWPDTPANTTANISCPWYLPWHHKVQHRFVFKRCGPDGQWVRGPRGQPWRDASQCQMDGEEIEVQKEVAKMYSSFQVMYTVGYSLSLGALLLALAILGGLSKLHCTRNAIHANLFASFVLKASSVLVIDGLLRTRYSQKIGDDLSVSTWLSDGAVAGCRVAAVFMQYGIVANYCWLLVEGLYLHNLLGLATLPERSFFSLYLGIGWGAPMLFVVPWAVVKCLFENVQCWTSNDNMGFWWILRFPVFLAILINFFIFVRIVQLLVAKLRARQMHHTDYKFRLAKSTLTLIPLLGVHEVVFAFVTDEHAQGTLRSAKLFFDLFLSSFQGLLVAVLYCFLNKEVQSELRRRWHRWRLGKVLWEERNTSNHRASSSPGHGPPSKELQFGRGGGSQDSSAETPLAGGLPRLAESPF

[38] = molecular target: T3, Glucagon receptor; assay: Potency index, ratio of Ki of 3-[[4-[(1R)-1-[5-[2-Chloro4-(trifluoromethyl)phenyl]indazol-1-yl]-3-methyl-butyl]benzoyl]amino]propanoic acid to Ki of compound for human full length GCGR transfected in HEK293 cells assessed as reduction in glucagon-induced cAMP response by LANCE TR-FRET assay; type: functional, cell-based
[39] = molecular target: T3, Glucagon receptor; assay: Potency index, ratio of Ki of 3-(4-((1R)-1-(4-methoxy-5-(2-methyl-4-(trifluoromethyl)phenyl)-1H-indazol-1-yl)-3-methylbutyl)benzamido)propanoic acid to Ki of compound for human full length GCGR transfected in HEK293 cells assessed as reduction in glucagon-induced cAMP response by LANCE TR-FRET assay; type: functional, cell-based

SMILES: CC(C)C[C@@H](c1ccc(C(=O)NCCC(=O)O)cc1)n1ncc2cc(-c3ccc(C(F)(F)F)cc3)ccc21
Ki [37]: 0.46 µM

SMILES: COc1c(-c2ccc(C(F)(F)F)cc2Cl)ccc2nn([C@H](CC(C)C)c3ccc(C(=O)NCCC(=O)O)cc3)cc12
remaining at 10 min, 1 µM [14]: 116% | remaining at 10 min, 1 µM [15]: 100% | remaining at 10 min, 1 µM [18]: 76% | remaining at 10 min, 1 µM [31]: 79%

SMILES: CC(C)C[C@@H](c1ccc(C(=O)NCCC(=O)O)cc1)n1ncc2cc(-c3ccc(C(F)(F)F)cc3Cl)ccc21
remaining at 10 min, 1 µM [14]: 59% | remaining at 10 min, 1 µM [15]: 81% | remaining at 10 min, 1 µM [18]: 107% | Ratio Ki [38]: 15 | Stability ([31]; microsomes, 10 min, 1 µM): 121%

SMILES: Cc1cc(C(F)(F)F)ccc1-c1ccc2nn([C@@H](CC(C)C)c3ccc(C(=O)NCCC(=O)O)cc3)cc2c1C
remaining at 10 min, 1 µM [14]: 110% | remaining at 10 min, 1 µM [15]: 107% | remaining at 10 min, 1 µM [18]: 50% | remaining at 10 min, 1 µM [31]: 64%

SMILES: Cc1cc(C(F)(F)F)ccc1-c1cc2cnn([C@@H](CC(C)C)c3ccc(C(=O)NCCC(=O)O)cc3)c2cc1C
clearance [1]: 1.61 mL/min/kg | half-life [2]: 16.9 h | inhibition [3]: Active | clearance [4]: 0.21 mL/min/kg | half-life [5]: 1.6 h | Vd [6]: 2.67 L/kg | AUC(0-t) [7]: 6.5 µM·h | bioavailability [8]: 39.5% | IC50 [9]: > 10 µM | IC50 [10]: > 10 µM | IC50 [11]: > 10 µM | Cmax [12]: 27.7 µM | AUC(0-t) [13]: 422 µM·h | remaining at 10 min, 1 µM [14]: 81% | remaining at 10 min, 1 µM [15]: 116% | fraction unbound at 1 µM [16]: 0.0001 | Vd [17]: 0.87 L/kg | remaining at 10 min, 1 µM [18]: 70% | Cmax [19]: 0.8 µM | Cmax [20]: 18.9 µM | bioavailability [21]: 51.9% | half-life [22]: 7.2 h | clearance [23]: 26.8 mL/min/kg | Vd [24]: 0.22 L/kg | IC50 [25]: > 10 µM | AUC(0-t) [27]: 242 µM·h | IC50 [28]: > 10 µM | IC50 [29]: > 10 µM | Ki [30]: 0.03 µM | remaining at 10 min, 1 µM [31]: 80% | bioavailability [32]: 70.1% | inhibition [33]: Active | half-life [34]: 6.5 h | half-life [35]: 13.3 h | half-life [36]: 3.1 h

Continued, in another order:

clearance [1]: 2.47 mL/min/kg | half-life [2]: 18.9 h | clearance [4]: 0.21 mL/min/kg | half-life [5]: 3.6 h | Vd [6]: 3.32 L/kg | AUC(0-t) [7]: 5.6 µM·h | bioavailability [8]: 57.3% | IC50 [9]: > 10 µM | IC50 [10]: > 10 µM | IC50 [11]: > 10 µM | Cmax [12]: 34.1 µM | AUC(0-t) [13]: 544 µM·h | remaining at 10 min, 1 µM [14]: 62% | remaining at 10 min, 1 µM [15]: 67% | fraction unbound at 1 µM [16]: 0.0001 | Vd [17]: 1.45 L/kg | remaining at 10 min, 1 µM [18]: 99% | Cmax [19]: 0.5 µM | Cmax [20]: 15.6 µM | bioavailability [21]: 35.4% | half-life [22]: 7.8 h | clearance [23]: 18.7 mL/min/kg | Vd [24]: 0.27 L/kg | IC50 [25]: > 10 µM | AUC(0-t) [27]: 254 µM·h | IC50 [28]: > 10 µM | IC50 [29]: > 10 µM | Ki [30]: 0.02 µM | remaining at 10 min, 1 µM [31]: 65% | bioavailability [32]: 121% | half-life [34]: 9.1 h | half-life [35]: 16 h | half-life [36]: 7.1 h
SMILES: Cc1cc2c(cnn2[C@@H](CC(C)C)c2ccc(C(=O)NCCC(=O)O)cc2)cc1-c1ccc(C(F)(F)F)cc1Cl
inhibition [3]: Active | inhibition [26]: Dose-dependent effect | inhibition [33]: Active

remaining at 10 min, 1 µM [14]: 95% | remaining at 10 min, 1 µM [15]: 81% | Ratio Ki [39]: 84 | remaining at 10 min, 1 µM [18]: 83% | remaining at 10 min, 1 µM [31]: 69%
SMILES: COc1c(-c2ccc(C(F)(F)F)cc2C)ccc2c1cnn2[C@@H](CC(C)C)c1ccc(C(=O)NCCC(=O)O)cc1
